Laboratory results reported in patent publication US20040106545A1, “Compounds and methods for modulating cell adhesion” (priority 1996, published 2004).
“Also recorded” adds a separate entry of the source. Positions of bridges follow the written chain, without caps; N, C: chain ends. Residues, ends and D or L forms follow the SMILES beside them.

Experiments:
NRK cells = experiment: Disruption of normal rat kidney (NRK) cell adhesion, E-cadherin immunofluorescence; assay type: cell-based; settings: 1 mg/mL, 48 hours
Experimental: Within another such assay, the effect of a modulating agent on normal rat kidney (NRK) cells may be evaluated. According to a representative procedure, NRK cells (ATCC #1571-CRL) may be plated at 10-20,000 cells per 35 mm tissue culture flasks containing DMEM with 10% FCS and sub-cultured periodically (Laird et al., J. Cell Biol. 131:1193-1203, 1995). Cells may be harvested and replated in 35 mm tissue culture flasks containing 1 mm coverslips and incubated until 50-65% confluent (24-36 hours). At this time, coverslips may be transferred to a 24-well plate, washed once with fresh DMEM and exposed to modulating agent at a concentration of, for example, 1 mg/mL for 24 hours. Fresh modulating agent may then be added, and the cells left for an additional 24 hours. Cells may be fixed with 100% methanol for 10 minutes and then washed three times with PBS. Coverslips may be blocked for 1 hour in 2% BSA/PBS and incubated for a further 1 hour in the presence of mouse anti-E-cadherin antibody (Transduction Labs, 1:250 dilution). Primary and secondary antibodies may be diluted in 2% BSA/PBS. Following incubation in the primary antibody, coverslips may be washed three times for 5 minutes each in PBS and incubated for 1 hour with donkey anti-mouse antibody conjugated to fluorescein (diluted 1:200). Following further washes in PBS (3×5 min) coverslips can be mounted and viewed by confocal microscopy.
NRK cells (ATCC #1571-CRL) were plated at 10-20,000 cells per 35 mm tissue culture flasks containing DMEM with 10% FCS and sub-cultured periodically (Laird et al., J. Cell Biol. 131:1193-1203, 1995). Cells were harvested and replated in 35 mm tissue culture flasks containing 1 mm coverslips and incubated until 50-65% confluent (24-36 hours). At this time, coverslips were transferred to a 24-well plate, washed once with fresh DMEM and exposed to cyclic peptide solutions (N—Ac-CHAVC-NH2 (SEQ ID NO:10) and N—Ac-CHGVC-NH2 (SEQ ID NO:11)) at a concentration of 1 mg/mL for 24 hours. Fresh peptide solutions were then added and the cells were left for an additional 24 hours. Cells were fixed with 100% methanol for 10 minutes and then washed three times with PBS. Coverslips were blocked for 1 hour in 2% BSA/PBS and incubated for a further 1 hour in the presence of mouse anti-E-cadherin antibody (Transduction Labs, Lexington, Ky.; 1:250 dilution). Primary and secondary antibodies were diluted in 2% BSA/PBS. Following incubation in the primary antibody, coverslips were washed three times for 5 minutes each in PBS and incubated for 1 hour with donkey anti-mouse antibody conjugated to fluorescein (Jackson Immuno Research, West Grove, Pa.; diluted 1:200). Following a further wash in PBS (3×5 min) coverslips were mounted and viewed by confocal microscopy.

[1] = Cytotoxicity, MTT assay, HMVEC; assay type: cell-based; settings: human, HMVEC (human microvascular endothelial cells), read-out: HMVEC Cytotox (IC50)
Experimental: N—Ac-CHAVC-NH2 (SEQ ID NO:10) and the control peptide N—Ac-CHGVC-NH2 (SEQ ID NO:11) were evaluated for possible cytotoxic effects on human microvascular endothelial (HMVEC; Clonetics), human umbilical vein endothelial (HUVEC; ATCC #CRL-1730), IAFp2 (human fibroblast cell line; Institute Armand-Frapier, Montreal, Quebec), WI-38 (human fibroblast cell line; ATCC #CCL-75), MDA-MB231 (human breast cancer cell line; ATCC #HTB-26), and PC-3 (human prostate cancer cell line; ATCC #CRL-1435) cells utilizing the MTT assay (Plumb et al., Cancer Res. 49:4435-4440, 1989). Neither of the peptides was cytotoxic at concentrations up to and including 100 μM. Similarly, neither of the peptides was capable of inhibiting the proliferation of the above cell lines at concentrations up to 100 μM, as judged by ^3H-thymidine incorporation assays.

PC-3 = assay type: cell-based, human; settings: 3 h
Method in brief: (§1)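 Peptide concentrations reached 100 μM. Both an MTT cytotoxicity read-out and ^3H-thymidine incorporation for proliferation were used.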

HMVEC = assay type: cell-based, human; settings: 3 h
Method in brief: as §1

MDA-MB231 = assay type: cell-based, human; settings: 3 h
Method in brief: as §1

IAFp2 = assay type: cell-based, human; settings: 3 h
Method in brief: as §1

HUVEC = assay type: cell-based, human; settings: 3 h
Method in brief: as §1

WI-38 = assay type: cell-based, human; settings: 3 h
Method in brief: as §1

IC50 (PC-3) [µM] | IC50 (HMVEC) [µM] | IC50 (MDA-MB231) [µM] | IC50 (IAFp2) [µM] | SMILES | E-cadherin expression of NRK cells (immunofluorescence) (NRK cells) | disruption of NRK cell adhesion (NRK cells) | IC50 [1] [µM] | IC50 (HUVEC) [µM] | IC50 (WI-38) [µM]
 |  |  |  | CC(=O)N[C@H]1CSSC[C@@H](C(N)=O)NC(=O)[C@H](C(C)C)NC(=O)CNC(=O)[C@H](Cc2c[nH]cn2)NC1=O [N—Ac—CHGVC—NH2, reference compound] | expressed E-cadherin | had no affect on cell adhesion | > 100 |  | 
> 100 | > 100 | > 100 | > 100 | CC(=O)N[C@H]1CSSC[C@@H](C(N)=O)NC(=O)[C@H](CC(=O)O)NC(=O)[C@H](C(C)C)NC(=O)[C@H](C)NC(=O)[C@H](Cc2c[nH]cn2)NC(=O)[C@H](C)NC1=O [N—Ac—CAHAVDC—NH2, N-Ac-Cys-Ala-His-Ala-Val-Asp-Cys-NH2] (Ac-CAHAVDC-NH2; disulfide 1-7) |  |  |  | > 100 | > 100
> 100 | > 100 | > 100 | > 100 | CC[C@H](C)[C@@H]1NC(=O)[C@H](CC(=O)O)NC(=O)[C@H](C(C)C)NC(=O)[C@H](C)NC(=O)[C@H](Cc2c[nH]cn2)NC(=O)[C@H](C)NC(=O)[C@@H](NC(C)=O)CSSC[C@@H](C(N)=O)NC1=O (Ac-CAHAVDIC-NH2; disulfide 1-8) |  |  |  | > 100 | > 100
 |  |  |  | CC(=O)N[C@H]1CSSC[C@@H](C(N)=O)NC(=O)[C@H](C(C)C)NC(=O)[C@H](C)NC(=O)[C@H](Cc2c[nH]cn2)NC1=O [N—Ac—CHAVC—NH2, N-Ac-Cys-His-Ala-Val-Cys-NH2] | E-cadherin expression is greatly reduced; also recorded: expressed greatly reduced levels of E-cadherin | NRK cells retract from one another; also recorded: disrupted NRK cell adhesion | > 100 |  | 
